According to ChEMBL document CHEMBL1201862, “PubChem BioAssay data set” (2004):
Active and inactive are the calls of the source.

Columns and labels:
[1] = target: T1, G-protein coupled receptor 55 (Homo sapiens, UniProt Q9Y2T6); assay: GPR55 antagonists blocking LPI-driven arrestin recruitment, primary screen, imaging, U2OS, beta-arrestin-GFP, LPI agonist (AID 2013); format: functional;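 also: antagonist potency measured as reduced agonist-driven arrestin aggregation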
[2] = target: T1, G-protein coupled receptor 55; assay: GPR55 agonists via beta-arrestin recruitment, primary screen, imaging, U2OS cells, beta-arrestin-GFP redistribution (AID 1961); format: functional
[3] = target: T2, Alkaline phosphatase, tissue-nonspecific isozyme (Homo sapiens, UniProt P05186); assay: human TNAP enzyme inhibitors, SAR follow-up, biochemical, luminescent, dose response (AID 1056)
T2 sequence (P05186 whole entry): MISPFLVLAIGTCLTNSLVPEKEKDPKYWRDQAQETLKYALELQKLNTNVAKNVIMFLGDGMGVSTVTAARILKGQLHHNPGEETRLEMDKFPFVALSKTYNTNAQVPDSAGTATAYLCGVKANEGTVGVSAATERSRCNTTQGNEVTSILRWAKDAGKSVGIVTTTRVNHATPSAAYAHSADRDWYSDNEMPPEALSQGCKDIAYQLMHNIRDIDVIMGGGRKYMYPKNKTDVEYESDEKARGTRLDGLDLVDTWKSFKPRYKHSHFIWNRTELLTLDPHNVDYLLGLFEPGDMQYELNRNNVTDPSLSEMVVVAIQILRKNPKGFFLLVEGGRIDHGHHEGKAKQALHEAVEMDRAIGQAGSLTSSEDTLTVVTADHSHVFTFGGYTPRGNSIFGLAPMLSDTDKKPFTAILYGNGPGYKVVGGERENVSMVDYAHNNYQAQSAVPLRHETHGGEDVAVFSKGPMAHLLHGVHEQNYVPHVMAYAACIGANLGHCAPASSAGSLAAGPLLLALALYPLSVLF

[4] = target: T3, Mannose-6-phosphate isomerase (Homo sapiens, UniProt P34949); assay: PMI enzyme inhibitors, confirmation, biochemical, fluorescence intensity (AID 1535)
T3 sequence (P34949 whole entry): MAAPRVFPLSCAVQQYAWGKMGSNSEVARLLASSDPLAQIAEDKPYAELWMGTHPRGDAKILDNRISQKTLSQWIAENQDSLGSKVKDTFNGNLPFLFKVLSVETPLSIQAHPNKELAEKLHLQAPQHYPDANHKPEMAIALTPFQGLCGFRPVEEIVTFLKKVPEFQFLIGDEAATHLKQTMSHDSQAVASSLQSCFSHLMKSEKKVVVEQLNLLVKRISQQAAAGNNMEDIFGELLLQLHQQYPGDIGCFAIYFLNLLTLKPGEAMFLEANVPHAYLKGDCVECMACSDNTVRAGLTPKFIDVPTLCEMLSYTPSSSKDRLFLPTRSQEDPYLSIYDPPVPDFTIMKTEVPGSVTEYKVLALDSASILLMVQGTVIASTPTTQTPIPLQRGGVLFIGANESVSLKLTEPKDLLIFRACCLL

Phosphomannomutase 2 = target: T4, Phosphomannomutase 2 (Homo sapiens, UniProt O15305); assay: Counter screen SAR assay for PMM2 inhibitors via a fluorescence intensity assay. [Related pubchem assays (depositor defined):AID1545, AID1574]
T4 sequence (O15305 whole entry): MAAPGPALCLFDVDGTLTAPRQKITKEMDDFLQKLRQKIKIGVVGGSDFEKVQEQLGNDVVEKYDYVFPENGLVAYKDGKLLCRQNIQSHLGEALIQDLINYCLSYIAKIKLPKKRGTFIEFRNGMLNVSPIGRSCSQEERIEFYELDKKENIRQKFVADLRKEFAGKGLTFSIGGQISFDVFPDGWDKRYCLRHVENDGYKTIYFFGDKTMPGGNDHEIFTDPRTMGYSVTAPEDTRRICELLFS

[5] = target: Phosphoethanolamine/phosphocholine phosphatase (Homo sapiens, UniProt Q8TCT1); assay: SAR assay for compounds that inhibit PHOSPHO1. [Related pubchem assays (depositor defined):AID1545, AID1565, AID1574]
Sequence of Phosphoethanolamine/phosphocholine phosphatase (Q8TCT1 whole entry): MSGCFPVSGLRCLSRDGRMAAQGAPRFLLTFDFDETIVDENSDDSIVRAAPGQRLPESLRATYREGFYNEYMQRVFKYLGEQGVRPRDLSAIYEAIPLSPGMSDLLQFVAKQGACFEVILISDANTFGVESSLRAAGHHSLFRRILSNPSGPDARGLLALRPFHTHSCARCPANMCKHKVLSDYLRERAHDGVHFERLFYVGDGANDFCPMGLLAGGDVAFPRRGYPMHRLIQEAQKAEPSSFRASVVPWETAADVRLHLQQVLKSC

[6] = HepG2 cell cytotoxicity, dose response, cytotoxicity control for non-replicating M. tuberculosis project (AID 489018); format: functional; settings: Mycobacterium tuberculosis
cells = format: functional
[7] = target: T5, Ubiquitin-conjugating enzyme E2 N (Homo sapiens, UniProt P61088); format: functional;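 also: Dose-response confirmation in a TR-FRET assay detecting UBC13-driven polyubiquitin chain formation, inhibition measured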
T5 sequence (P61088 whole entry): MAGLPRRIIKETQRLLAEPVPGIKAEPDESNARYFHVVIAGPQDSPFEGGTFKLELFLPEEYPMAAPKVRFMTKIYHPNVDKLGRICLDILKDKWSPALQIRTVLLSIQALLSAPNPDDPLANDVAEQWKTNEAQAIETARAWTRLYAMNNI

INS1 = assay: beta cell apoptosis inhibitors, cytokine rescue, dose response, luminescence, retest (AID 449756); format: functional, cell-based; settings: Rattus norvegicus, INS1;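 also: cell death triggered by IL-1 beta plus TNF-alpha plus IFN-gamma mixture; protective hits raise ATP signal compared with cytokine alone wells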
[8] = Vero E6 cell cytotoxicity, dose response, cytotoxicity control for non-replicating M. tuberculosis project, secondary assay (AID 492998); format: functional, VeroE6; settings: Vero C1008
[9] = HepG2 cell cytotoxicity, dose response, cytotoxicity control, ATP luminescence, cherry-pick, activator set 2 (AID 1053143); format: functional, cell-based
[10] = cytotoxicity toward NIH3T3 fibroblasts, dose response, counter-screen, cell-based, ATP luminescence, mouse fibroblasts (AID 2010); format: functional;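 also: cells exposed to compound for about 90 hours before reading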
[11] = target: FAD-linked sulfhydryl oxidase ALR (Homo sapiens, UniProt P55789); assay: inhibitors of human ALR sulfhydryl oxidase, dose response, biochemical, H2O2 detection, luminescence, cherry-pick (AID 493248)
Sequence of FAD-linked sulfhydryl oxidase ALR (P55789 whole entry): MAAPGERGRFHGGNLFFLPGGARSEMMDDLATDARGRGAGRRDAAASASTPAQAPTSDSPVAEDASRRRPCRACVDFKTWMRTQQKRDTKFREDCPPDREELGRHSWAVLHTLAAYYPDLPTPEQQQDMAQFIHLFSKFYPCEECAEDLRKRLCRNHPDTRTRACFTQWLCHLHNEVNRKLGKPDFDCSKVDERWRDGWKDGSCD

[12] = inhibitors of intracellular T. cruzi replication, confirmation, NIH3T3 host cells, beta-gal luminescence (AID 2044); format: functional, cell-based;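 also: intracellular parasites grown in NIH/3T3 mouse fibroblasts as host cells; luminescent beta-galactosidase reporter signal from transgenic T. cruzi replicating inside host cells; inhibitors lower the luminescence signal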
[13] = THP-1 cell cytotoxicity, dose response, cytotoxicity control for non-replicating M. tuberculosis project (AID 489025); format: functional
[14] = Luminescent dose response cell-based high throughput screening assay for inhibitors of the Janus kinase 2 mutant JAK2V617F. [Related pubchem assays: 1446 (Primary screen.), 1521 (Confirmation assay.), 1486 (Counter screen.)]; format: functional
Paired box protein Pax-8 = Paired box protein Pax-8 (Homo sapiens, UniProt Q06710); assay: inhibitors of PAX8-driven TPO luciferase reporter, dose response, RMG-I cells, cherry-pick (AID 687027); format: functional, cell-based;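 also: luciferase reporter driven by Pax8 target thyroperoxidase promoter measured by SteadyGlo luminescence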
Sequence of Paired box protein Pax-8 (Q06710 whole entry): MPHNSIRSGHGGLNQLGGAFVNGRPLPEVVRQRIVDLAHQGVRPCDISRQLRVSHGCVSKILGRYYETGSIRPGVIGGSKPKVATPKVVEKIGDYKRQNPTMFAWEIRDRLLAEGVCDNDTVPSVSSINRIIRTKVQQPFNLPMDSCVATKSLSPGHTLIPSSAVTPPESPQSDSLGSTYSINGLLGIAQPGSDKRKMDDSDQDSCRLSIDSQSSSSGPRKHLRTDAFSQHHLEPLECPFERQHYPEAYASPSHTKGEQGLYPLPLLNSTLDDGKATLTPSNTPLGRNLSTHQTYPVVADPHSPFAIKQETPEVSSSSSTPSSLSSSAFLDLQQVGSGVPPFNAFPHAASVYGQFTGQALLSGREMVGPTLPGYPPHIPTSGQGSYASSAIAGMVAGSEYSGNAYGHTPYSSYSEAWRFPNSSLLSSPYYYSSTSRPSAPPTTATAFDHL

Aminopeptidase N = target: T6, Aminopeptidase N (Plasmodium falciparum FcB1/Columbia, UniProt O96935); assay: P. falciparum M1AAP inhibitors, biochemical, fluorogenic H-Leu-NHMec substrate, 1536-well (AID 1445); parameters: species or system Plasmodium falciparum 3D7, 3D7
T6 sequence (O96935 whole entry): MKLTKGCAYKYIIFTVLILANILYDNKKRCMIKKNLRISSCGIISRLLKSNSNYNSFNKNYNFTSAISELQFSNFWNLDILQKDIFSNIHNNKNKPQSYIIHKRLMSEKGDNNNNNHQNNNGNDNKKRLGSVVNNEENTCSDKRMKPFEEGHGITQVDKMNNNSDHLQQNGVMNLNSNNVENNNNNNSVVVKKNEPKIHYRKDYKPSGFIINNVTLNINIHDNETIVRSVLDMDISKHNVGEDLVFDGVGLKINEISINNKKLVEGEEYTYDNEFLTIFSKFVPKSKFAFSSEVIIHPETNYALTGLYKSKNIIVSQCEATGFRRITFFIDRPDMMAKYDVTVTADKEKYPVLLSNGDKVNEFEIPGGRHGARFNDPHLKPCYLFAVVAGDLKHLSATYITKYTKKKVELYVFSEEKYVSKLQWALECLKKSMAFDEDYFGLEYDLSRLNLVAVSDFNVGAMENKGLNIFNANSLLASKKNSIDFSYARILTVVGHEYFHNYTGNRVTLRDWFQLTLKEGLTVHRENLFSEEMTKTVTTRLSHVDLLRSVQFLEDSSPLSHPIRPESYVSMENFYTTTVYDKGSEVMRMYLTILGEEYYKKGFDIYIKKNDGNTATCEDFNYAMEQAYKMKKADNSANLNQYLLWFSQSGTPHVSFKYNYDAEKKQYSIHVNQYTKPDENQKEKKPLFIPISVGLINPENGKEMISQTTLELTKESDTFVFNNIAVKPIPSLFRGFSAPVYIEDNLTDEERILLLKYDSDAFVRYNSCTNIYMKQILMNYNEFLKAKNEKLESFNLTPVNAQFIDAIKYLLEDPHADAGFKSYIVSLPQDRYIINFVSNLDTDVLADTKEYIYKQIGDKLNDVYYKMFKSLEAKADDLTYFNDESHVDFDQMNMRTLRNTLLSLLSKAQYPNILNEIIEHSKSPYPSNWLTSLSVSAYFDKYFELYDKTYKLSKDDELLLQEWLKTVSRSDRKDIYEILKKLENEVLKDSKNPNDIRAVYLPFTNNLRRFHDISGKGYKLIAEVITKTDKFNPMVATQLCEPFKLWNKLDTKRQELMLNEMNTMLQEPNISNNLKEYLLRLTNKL

[15] = target: Disintegrin and metalloproteinase domain-containing protein 17 (Homo sapiens, UniProt P78536); assay: exosite inhibitors of ADAM17, dose response, biochemical (AID 743260)
Sequence of Disintegrin and metalloproteinase domain-containing protein 17 (P78536 whole entry, the tested form may be a part): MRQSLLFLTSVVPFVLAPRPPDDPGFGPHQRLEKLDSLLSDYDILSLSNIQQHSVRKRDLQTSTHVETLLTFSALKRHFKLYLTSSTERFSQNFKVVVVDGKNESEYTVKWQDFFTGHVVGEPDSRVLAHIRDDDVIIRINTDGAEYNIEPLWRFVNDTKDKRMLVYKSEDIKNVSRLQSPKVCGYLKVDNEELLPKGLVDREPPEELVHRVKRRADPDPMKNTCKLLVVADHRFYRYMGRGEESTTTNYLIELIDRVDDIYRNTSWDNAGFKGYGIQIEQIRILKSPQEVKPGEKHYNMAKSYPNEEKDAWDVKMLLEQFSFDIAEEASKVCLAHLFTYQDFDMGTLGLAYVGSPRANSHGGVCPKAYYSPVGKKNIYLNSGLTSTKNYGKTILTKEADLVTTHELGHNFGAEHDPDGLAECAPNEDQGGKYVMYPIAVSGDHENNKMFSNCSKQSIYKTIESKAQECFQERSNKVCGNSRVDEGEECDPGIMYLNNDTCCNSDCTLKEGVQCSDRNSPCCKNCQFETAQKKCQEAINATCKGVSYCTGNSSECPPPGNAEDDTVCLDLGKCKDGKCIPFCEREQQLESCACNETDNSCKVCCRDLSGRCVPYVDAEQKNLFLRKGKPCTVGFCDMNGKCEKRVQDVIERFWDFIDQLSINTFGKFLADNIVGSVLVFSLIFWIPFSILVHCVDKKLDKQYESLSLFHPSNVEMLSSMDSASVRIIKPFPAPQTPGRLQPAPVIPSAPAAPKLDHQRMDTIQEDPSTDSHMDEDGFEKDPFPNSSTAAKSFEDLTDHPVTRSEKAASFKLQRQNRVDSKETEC

[16] = ADAM10 protease inhibitors, dose response, selectivity assay for ADAM17 exosite inhibitor project, biochemical, FRET peptide substrate, recombinant human ADAM10 (AID 743259);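 also: ADAM10 enzyme cleaving a FRET peptide substrate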
Prothrombin = Prothrombin (Bos taurus, UniProt P00735); assay: thrombin inhibition, dose response, biochemical, fluorescence polarization, uHTS hits (AID 602369); format: functional
[17] = target: T7, Sentrin-specific protease 1 (Homo sapiens, UniProt Q9P0U3); assay: Dose response confirmation of small molecule inhibitors of the catalytic domain of the SUMO protease, SENP1 in a FRET assay.; format: functional; settings: read-out: IC50_Mean
T7 sequence (Q9P0U3 whole entry): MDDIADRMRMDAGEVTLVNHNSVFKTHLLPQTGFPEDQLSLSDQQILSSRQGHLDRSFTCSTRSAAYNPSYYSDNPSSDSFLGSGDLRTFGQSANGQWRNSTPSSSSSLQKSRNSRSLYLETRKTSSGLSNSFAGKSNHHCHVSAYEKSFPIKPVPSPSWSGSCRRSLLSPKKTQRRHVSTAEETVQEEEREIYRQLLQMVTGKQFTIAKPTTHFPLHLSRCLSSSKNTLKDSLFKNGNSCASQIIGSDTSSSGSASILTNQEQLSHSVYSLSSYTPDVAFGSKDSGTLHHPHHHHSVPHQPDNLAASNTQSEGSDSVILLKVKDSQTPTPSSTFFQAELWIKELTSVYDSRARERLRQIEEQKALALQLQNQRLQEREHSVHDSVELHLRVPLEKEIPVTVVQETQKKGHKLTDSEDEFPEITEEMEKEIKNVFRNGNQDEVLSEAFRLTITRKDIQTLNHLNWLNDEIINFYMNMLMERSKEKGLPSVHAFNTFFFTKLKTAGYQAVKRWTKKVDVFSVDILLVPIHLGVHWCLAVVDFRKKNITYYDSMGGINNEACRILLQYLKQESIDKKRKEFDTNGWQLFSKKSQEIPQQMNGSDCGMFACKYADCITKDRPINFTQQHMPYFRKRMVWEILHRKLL

[18] = target: 72 kDa type IV collagenase (Homo sapiens, UniProt P08253); assay: Dose Response validation of uHTS RPN11 inhibitor hits using a MMP-2 Fluorescence assay.; format: functional
Sequence of 72 kDa type IV collagenase (P08253 whole entry): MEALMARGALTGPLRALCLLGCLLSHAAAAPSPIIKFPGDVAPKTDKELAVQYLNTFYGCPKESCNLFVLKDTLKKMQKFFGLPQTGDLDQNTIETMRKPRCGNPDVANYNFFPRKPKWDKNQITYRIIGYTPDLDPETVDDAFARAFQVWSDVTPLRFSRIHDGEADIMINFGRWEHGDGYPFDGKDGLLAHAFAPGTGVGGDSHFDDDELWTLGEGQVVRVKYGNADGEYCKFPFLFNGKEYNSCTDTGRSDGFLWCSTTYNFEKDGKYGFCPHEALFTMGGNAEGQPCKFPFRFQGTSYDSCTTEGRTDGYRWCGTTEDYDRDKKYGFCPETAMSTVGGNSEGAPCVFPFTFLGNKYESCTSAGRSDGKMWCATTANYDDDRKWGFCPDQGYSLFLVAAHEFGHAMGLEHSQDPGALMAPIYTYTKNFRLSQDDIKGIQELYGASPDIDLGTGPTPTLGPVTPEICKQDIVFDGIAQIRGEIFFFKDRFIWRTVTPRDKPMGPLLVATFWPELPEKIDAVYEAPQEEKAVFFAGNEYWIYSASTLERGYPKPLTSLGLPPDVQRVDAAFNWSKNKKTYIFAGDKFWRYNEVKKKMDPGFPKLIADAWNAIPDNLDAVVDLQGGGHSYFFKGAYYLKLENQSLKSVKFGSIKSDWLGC

[19] = target: 26S proteasome non-ATPase regulatory subunit 14 (Homo sapiens, UniProt O00487); assay: inhibition of proteasome subunit RPN11 – biochemical, fluorescence polarization, uHTS hits, confirmation (AID 602368); format: functional
Sequence of 26S proteasome non-ATPase regulatory subunit 14 (O00487 whole entry): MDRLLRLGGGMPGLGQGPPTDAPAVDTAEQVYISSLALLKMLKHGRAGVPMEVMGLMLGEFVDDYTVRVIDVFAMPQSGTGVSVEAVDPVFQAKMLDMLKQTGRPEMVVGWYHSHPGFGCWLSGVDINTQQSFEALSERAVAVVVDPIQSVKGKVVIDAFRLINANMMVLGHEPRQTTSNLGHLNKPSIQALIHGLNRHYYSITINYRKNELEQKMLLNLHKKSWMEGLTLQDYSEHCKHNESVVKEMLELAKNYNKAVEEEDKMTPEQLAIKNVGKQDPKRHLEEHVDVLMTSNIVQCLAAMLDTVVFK

[20] = target: T7, Sentrin-specific protease 1; assay: potency of human SENP1 inhibitors, dose response, biochemical, kinetic FRET (AID 651697); format: functional; settings: read-out: IC50_Mean
[21] = target: T8, Calpain-2 catalytic subunit (Sus scrofa, UniProt P43367); assay: pig calpain II inhibitor potency, dose response, biochemical, fluorogenic peptide substrate (AID 1420); format: functional
T8 sequence (P43367 whole entry): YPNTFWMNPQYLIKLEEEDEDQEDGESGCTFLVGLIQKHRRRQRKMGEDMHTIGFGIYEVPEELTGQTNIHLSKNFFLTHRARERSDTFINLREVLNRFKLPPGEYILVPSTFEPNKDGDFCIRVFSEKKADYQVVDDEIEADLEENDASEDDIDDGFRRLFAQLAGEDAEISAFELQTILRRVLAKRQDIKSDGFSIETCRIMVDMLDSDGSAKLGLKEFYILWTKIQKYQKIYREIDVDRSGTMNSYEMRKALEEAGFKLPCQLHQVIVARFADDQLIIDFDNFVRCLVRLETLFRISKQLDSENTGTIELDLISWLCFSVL

T1 sequence (Q9Y2T6 whole entry): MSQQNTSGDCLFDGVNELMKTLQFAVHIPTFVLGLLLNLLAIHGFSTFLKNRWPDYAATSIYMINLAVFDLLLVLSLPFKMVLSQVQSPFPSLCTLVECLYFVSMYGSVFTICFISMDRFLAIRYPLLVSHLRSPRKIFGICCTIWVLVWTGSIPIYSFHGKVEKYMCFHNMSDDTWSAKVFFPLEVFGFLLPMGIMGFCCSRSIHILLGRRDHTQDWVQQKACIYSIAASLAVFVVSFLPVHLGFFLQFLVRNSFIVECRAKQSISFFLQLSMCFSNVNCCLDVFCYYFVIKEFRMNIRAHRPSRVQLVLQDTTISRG

For `CCOC(=O)c1cc(C#N)c(Oc2ccccc2)nc1-c1ccccc1`, the IC50 [1] was 1.69 µM (active).

In the case of `CCCOc1ccc(/C=C2/C(=O)ON=C2C)cc1Cl`, the EC50 [2] was > 32 µM (inactive).

For `O=c1c2ccccc2sn1-c1ccc(Cl)c(S(=O)(=O)N2CCOCC2)c1`, the IC50 [3] was > 100 µM (inactive), the IC50 [4] was 8.58 µM (active) and the IC50 (Phosphomannomutase 2) was 55.3 µM (active). For the same compound, the IC50 [5] was 1.07 µM (inactive).

With `CN(C)CCCNc1cc(C(C)(C)C)nc2c(-c3ccccc3)cnn12` the CC50 [6] was > 20 µM (active), the IC50 (cells) was 19.8 µM (active) and the IC50 [7] was > 20 µM (inactive). For the same compound, the AC50 (INS1) was 13.8 µM (active), the CC50 [8] was > 20 µM (active) and the AC50 [9] was 15.5 µM (active). For the same compound, the EC50 [10] was 4.96 µM (active), the AC50 [11] was 2.53 µM (active) and the EC50 [12] was 0.574 µM (active). For the same compound, the CC50 [13] was 24.5 µM (active).

With `O=C(Nc1cccc(NC(=O)c2cccs2)c1)c1ccc([N+](=O)[O-])o1` the IC50 [14] was 1.57 µM (active), the CC50 [6] was 11 µM (active) and the IC50 (cells) was 4.05 µM (active). For the same compound, the CC50 [8] was 11.9 µM (active), the AC50 (Paired box protein Pax-8) was 4.04 µM (active) and the EC50 [10] was > 60 µM (not active). For the same compound, the IC50 (Aminopeptidase N) was 49.8 µM (active), the EC50 [12] was 0.104 µM (active) and the CC50 [13] was 7.45 µM (active).

For `Cc1ccc(C(=O)N2CCN(C3c4cccc5cccc(c45)C3NS(=O)(=O)c3ccccc3)CC2)cc1` (stereo not given), the IC50 [15] was > 69.5 µM (inactive), the EC50 [2] was 3.68 µM (active) and the IC50 [16] was > 69.5 µM (inactive).

For `O=C(NCCSCc1ccccc1)c1ccc(C2SCC(=O)N2Cc2ccccc2)cc1` (stereo not given), the IC50 (Prothrombin) was 50.5 µM (active), the IC50 [17] was 19.1 µM (active) and the IC50 [18] was > 100 µM (inactive). For the same compound, the IC50 [19] was 37.5 µM (active), the IC50 [20] was 11 µM (active) and the IC50 [1] was 1.49 µM (active). For the same compound, the IC50 [21] was 4.77 µM (not active).
